13 compounds from patent US8748426B2, “Inhibitors of diacylglycerol acyl transferase” (Piramal Enterprises Limited, priority 2009, dated 2014) can be followed below.

The target of this experiment is T1, hDGAT1 (Homo sapiens, UniProt O75907).
T1 sequence (O75907 1-488): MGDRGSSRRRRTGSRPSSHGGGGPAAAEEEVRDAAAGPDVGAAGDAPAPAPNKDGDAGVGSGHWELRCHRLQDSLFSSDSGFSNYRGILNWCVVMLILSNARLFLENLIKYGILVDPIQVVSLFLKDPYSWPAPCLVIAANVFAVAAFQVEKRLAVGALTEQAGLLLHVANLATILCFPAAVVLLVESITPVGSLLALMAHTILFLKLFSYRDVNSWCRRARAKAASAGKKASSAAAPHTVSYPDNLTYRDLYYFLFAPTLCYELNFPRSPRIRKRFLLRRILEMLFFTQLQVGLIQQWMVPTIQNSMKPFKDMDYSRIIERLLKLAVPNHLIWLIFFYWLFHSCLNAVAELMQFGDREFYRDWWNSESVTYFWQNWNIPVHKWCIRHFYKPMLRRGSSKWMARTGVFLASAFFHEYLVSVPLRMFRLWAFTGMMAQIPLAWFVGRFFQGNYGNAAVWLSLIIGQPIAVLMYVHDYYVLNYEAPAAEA
Put plainly: In-vitro DGAT1 assay (14C oleoyl CoA, hDGAT1 microsomes from Sf9 cells). The settings on record: read-out: % Inhibition of hDGAT1.

Protocol: Sf9 cells were seeded in spinner flasks on day 0 at a cell density of 1×10^6 and infected on day 1 with hDGAT1 baculovirus at a multiplicity of infection (MOI) of 5 and a cell density of 2×10^6. On day 3 (or 66-72 h), cells were harvested and centrifuged at 2500×g for 10 min. Pellet was resuspended in lysis buffer (100 mM sucrose, 50 mM KCl, 40 mM KH2PO4, 30 mM EDTA, pH 7.2) and passed through 21-gauge needle approximately 10 times. […] The supernatant was subjected to centrifugation at 35,000 rpm in a Beckman Ti-45 rotor at 4° C. for 1 h. The resultant pellet containing the microsomes wasere resuspended overnight in 1 mL of lysis buffer and total protein concentration was estimated using Bradford Reagent. Microsomes were aliquoted and stored at −80° C.
Frozen aliquots of hDGAT1 containing microsomes were thawed (5-10 mg/mL total protein) on ice and diluted to a working stock of 1 mg/mL with DGAT Assay Buffer (DAB).
The assay was performed in duplicates in a reaction volume of 100 μL. […] Procedure:
The reaction was started by the addition of 2.5 μL of 1 mg/mL of microsomes (iv) to the mixture and incubated at 37° C. for 10 min. […] The mixture was vortexed and the triglycerides formed were extracted into the organic heptane phase.

For `CC(C)[C@@H](C(=O)O)N1Cc2cc(-c3ccc(NC(=O)c4cccc(F)c4)cc3)ccc2C1=O` [Example 313, (S)-2-(5-(4-(3-Fluorobenzamido)phenyl)-1-oxoisoindolin-2-yl)-3-methylbutanoic acid], the inhibition at 1 µM fell in the range of 10 to 50%. As to `CC(C)[C@@H](C(=O)O)N1Cc2cc(-c3ccc(NC(=O)c4cccc(Cl)c4)cc3)ccc2C1=O` [Example 315, (S)-2-(5-(4-(3-Chlorobenzamido)phenyl)-1-oxoisoindolin-2-yl)-3-methylbutanoic acid], the inhibition at 1 µM was 10 to 50%. Next, `Cc1ccc(C(=O)Nc2ccc(-c3ccc4c(c3)CN([C@H](C(=O)O)C(C)C)C4=O)cc2)cc1` [Example 319, (S)-3-Methyl-2-(5-(4-(4-methylbenzamido)phenyl)-1-oxoisoindolin-2-yl)butanoic acid]: 10 to 50%; `CC(C)[C@@H](C(=O)O)N1Cc2cc(-c3ccc(NC(=O)c4ccc(Cl)cc4)cc3)ccc2C1=O` [Example 321, (S)-2-(5-(4-(4-Chlorobenzamido)phenyl)-1-oxoisoindolin-2-yl)-3-methylbutanoic acid]: greater than 50%.

In the case of `CC(C)[C@@H](C(=O)O)N1Cc2cc(-c3ccc(NC(=O)c4ccc(C(C)(C)C)cc4)cc3)ccc2C1=O` [Example 323, (S)-2-(5-(4-(4-tert-Butylbenzamido)phenyl)-1-oxoisoindolin-2-yl)-3-methyl butanoic acid], the inhibition at 1 µM lay within 10 to 50%. Next, `CCCCCc1ccc(C(=O)Nc2ccc(-c3ccc4c(c3)CN([C@H](C(=O)O)C(C)C)C4=O)cc2)cc1` [Example 325, (S)-3-Methyl-2-(1-oxo-5-(4-(4-pentylbenzamido)phenyl)isoindolin-2-yl)butanoic acid]: 10 to 50%; `CC(C)[C@H](C(=O)O)N1Cc2ccc(-c3ccc(NC(=O)Nc4cccc(C(F)(F)F)c4)cc3)cc2C1=O` [Example 331, (R)-3-Methyl-2-(1-oxo-6-(4-(3-(3-(trifluoromethyl)phenyl)ureido)phenyl)isoindolin-2-yl)butanoic acid]: greater than 50%.

For `O=C(O)CN1Cc2ccc(-c3ccc(NC(=O)Nc4cccc(C(F)(F)F)c4)cc3)cc2C1=O` [Example 334, 2-(1-Oxo-6-(4-(3-(3-(trifluoromethyl)phenyl)ureido)phenyl)isoindolin-2-yl)acetic acid], the inhibition at 1 µM lay in the range of 10 to 50%. Next, `C[C@@H](C(=O)O)N1Cc2ccc(-c3ccc(NC(=O)Nc4cccc(C(F)(F)F)c4)cc3)cc2C1=O` [Example 337, (S)-2-(1-Oxo-6-(4-(3-(3-(trifluoromethyl)phenyl)ureido)phenyl)isoindolin-2-yl)propanoic acid]: greater than 50%; `CC(C)(C(=O)O)N1Cc2ccc(-c3ccc(NC(=O)Nc4cccc(C(F)(F)F)c4)cc3)cc2C1=O` [Example 340, 2-Methyl-2-(1-oxo-6-(4-(3-(3-(trifluoromethyl)phenyl)ureido)phenyl)isoindolin-2-yl)propanoic acid]: 10 to 50%. Next, `O=C(Nc1ccc(-c2ccc3c(c2)C(=O)N(C2(C(=O)O)CCCC2)C3)cc1)Nc1cccc(C(F)(F)F)c1` [Example 343, 1-(1-Oxo-6-(4-(3-(3-(trifluoromethyl)phenyl)ureido)phenyl)isoindolin-2-yl)cyclopentanecarboxylic acid]: 10 to 50%; `O=C(Nc1ccc(-c2ccc3c(c2)C(=O)N([C@H](C(=O)O)c2ccccc2)C3)cc1)Nc1cccc(C(F)(F)F)c1` [Example 346, (S)-2-(1-Oxo-6-(4-(3-(3-(trifluoromethyl)phenyl)ureido)phenyl)isoindolin-2-yl)-2-phenylacetic acid]: 10 to 50%; `O=C(O)CCCN1Cc2ccc(-c3ccc(NC(=O)Nc4cccc(C(F)(F)F)c4)cc3)cc2C1=O` [Example 349, 4-(1-Oxo-6-(4-(3-(3-(trifluoromethyl)phenyl)ureido)phenyl)isoindolin-2-yl)butanoic acid]: 10 to 50%.
